From paper PMC9268515, “UGT1A1 and UGT1A9 Are Responsible for Phase II Metabolism of Tectorigenin and Irigenin In Vitro” (Molecules, 2022)

Experiments:
[1] = test system: pooled human liver microsomes (HLMs); assay: Glucuronidation kinetics of tectorigenin and irigenin in HLMs; format: in vitro ADME; settings: tectorigenin glucuronidation in HLMs, metabolite M
Description: To obtain suitable incubation conditions, we first evaluated the linearity of metabolite formation at different times (10–60 min), the UDPGA concentrations (0.5–5 mM), and the microsome protein concentrations in HLMs (0.2–2 mg/mL). The final incubation medium used in the experiment contained MgCl2 (10 mM), microsomes (0.5 mg/mL), 1,4-lactone monohydrate (5 mM), alamethicin ([…]), UDPGA (1 mM), and different concentrations of tectorigenin or irigenin (1–300 μM) in Tris-HCl buffer (50 mM, pH 7.4). The mixture was incubated at 37 °C for 30 min; then, the reaction was stopped by adding ice-cold methanol. After the mixtures were centrifuged (17,000 rpm, 10 min), and the supernatant was analyzed by HPLC. Michaelis–Menten parameters (Vmax and Km) were determined on the basis of the nonlinear regression of the plot of the substrate concentration vs. rate of metabolite formation.
(§1) For both HLMs and UGTs, metabolic kinetic analysis was performed by fitting the data to the Michaelis-Menten model. The Km and Vmax of enzymes were calculated as follows:(3) V=Vmax×[S]/Km+[S], where [S] is the substrate concentration. All results were shown as the mean ± standard error (SE). Differences among different groups were compared using one-way analysis of variance. A p-value < 0.05 was considered statistically significant.

[2] = biological target: T1, UGT1A1 (Homo sapiens, UniProt P22309); assay: Recombinant UGT reaction screening and enzyme kinetics, UGT1A1; format: in vitro ADME; settings: recombinant UGT1A1 screening
T1 construct: purchased BD Biosciences (Woburn, MA, USA)
T1 sequence (P22309 26-533): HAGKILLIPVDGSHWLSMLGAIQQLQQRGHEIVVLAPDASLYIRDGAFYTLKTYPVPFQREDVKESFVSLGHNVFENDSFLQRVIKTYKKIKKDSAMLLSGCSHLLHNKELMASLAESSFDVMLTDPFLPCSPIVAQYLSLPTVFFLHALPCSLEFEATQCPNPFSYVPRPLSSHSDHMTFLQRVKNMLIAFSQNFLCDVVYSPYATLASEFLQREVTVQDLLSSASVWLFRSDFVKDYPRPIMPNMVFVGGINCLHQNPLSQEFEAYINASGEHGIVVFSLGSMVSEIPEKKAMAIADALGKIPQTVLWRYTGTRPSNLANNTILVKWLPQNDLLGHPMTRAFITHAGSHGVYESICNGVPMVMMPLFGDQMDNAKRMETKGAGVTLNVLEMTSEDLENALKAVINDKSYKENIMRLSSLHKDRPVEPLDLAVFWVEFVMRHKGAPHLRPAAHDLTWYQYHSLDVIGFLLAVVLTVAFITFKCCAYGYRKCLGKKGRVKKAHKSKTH
Description: (§2) UGT reaction screening of tectorigenin and irigenin was conducted using nine commercially available human UGTs (UGT1A1/1A3/1A4/1A6/1A9/2B4/2B7/2B15/2B17). Furthermore, we studied the enzymatic kinetic characteristics of tectorigenin and irigenin using UGT1A1 and UGT1A9. Six concentrations of tectorigenin and irigenin (1, 3, 10, 30, 100, and 300 μM) were incubated in triplicate in order to obtain the enzyme kinetic characteristics of tectorigenin and irigenin glucuronide.
as §1

[3] = biological target: T2, UGT1A3 (Homo sapiens, UniProt P35503); assay: Recombinant UGT reaction screening, UGT1A3; format: in vitro ADME
T2 construct: purchased BD Biosciences (Woburn, MA, USA)
T2 sequence (P35503 29-534): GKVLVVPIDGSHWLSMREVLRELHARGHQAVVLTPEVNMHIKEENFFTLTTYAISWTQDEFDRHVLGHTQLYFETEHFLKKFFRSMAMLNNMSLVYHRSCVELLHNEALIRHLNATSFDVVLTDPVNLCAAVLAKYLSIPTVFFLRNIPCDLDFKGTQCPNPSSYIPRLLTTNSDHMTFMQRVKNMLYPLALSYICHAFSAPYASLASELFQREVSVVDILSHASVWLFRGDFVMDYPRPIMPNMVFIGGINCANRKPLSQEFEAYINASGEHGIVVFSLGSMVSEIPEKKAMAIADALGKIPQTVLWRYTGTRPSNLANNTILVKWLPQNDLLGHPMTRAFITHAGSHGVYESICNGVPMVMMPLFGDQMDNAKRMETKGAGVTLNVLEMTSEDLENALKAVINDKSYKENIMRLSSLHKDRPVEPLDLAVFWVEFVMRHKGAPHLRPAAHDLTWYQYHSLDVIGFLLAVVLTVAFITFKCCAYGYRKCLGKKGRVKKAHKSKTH
Description: as §2

[4] = biological target: T3, UGT1A6 (Homo sapiens, UniProt P19224); assay: Recombinant UGT reaction screening, UGT1A6; format: in vitro ADME
T3 construct: purchased BD Biosciences (Woburn, MA, USA)
T3 sequence (P19224 27-532): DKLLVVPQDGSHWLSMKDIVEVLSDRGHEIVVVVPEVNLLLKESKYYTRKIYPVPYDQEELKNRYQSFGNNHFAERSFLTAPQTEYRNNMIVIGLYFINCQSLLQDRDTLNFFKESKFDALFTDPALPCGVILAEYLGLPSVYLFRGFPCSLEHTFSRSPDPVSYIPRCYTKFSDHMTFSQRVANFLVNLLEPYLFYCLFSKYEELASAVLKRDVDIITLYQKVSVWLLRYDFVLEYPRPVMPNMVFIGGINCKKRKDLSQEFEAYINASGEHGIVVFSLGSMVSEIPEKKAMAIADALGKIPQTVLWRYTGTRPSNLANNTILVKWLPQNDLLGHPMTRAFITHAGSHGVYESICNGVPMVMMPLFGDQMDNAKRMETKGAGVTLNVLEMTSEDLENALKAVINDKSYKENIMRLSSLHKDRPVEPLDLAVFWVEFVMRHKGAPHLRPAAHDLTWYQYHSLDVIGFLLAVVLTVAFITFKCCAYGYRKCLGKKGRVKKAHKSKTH
Description: as §2

[5] = Stability experiment under different storage conditions; format: physicochemical; settings: autosampler 12 h at 4 °C
Description: In the stability experiment, we evaluated the stability of tectorigenin and irigenin, as well as their metabolites, under different conditions. […] Metabolites (M, M1, and M2) were stable in the inactivated metabolic system for 2 h (held constant at approximately 25 °C) and after storage for 7 days (−80 °C), as well as in the pretreated samples placed in the autosampler for 12 h at 4 °C.

Km ([1]; read-out: Km for M formation): 32.8 ± 4.79 µM | Activity in glucuronidation of tectorigenin [2]: highest activity | Activity in glucuronidation of tectorigenin [3]: some activity | Activity in glucuronidation of tectorigenin [4]: some activity | Stability in pretreated samples in the autosampler [5]: stable | RE and RSD values in pretreated samples in the autosampler ([5]; printed as below ±5%): < 5%
SMILES: COc1c(O)cc2occ(-c3ccc(O)cc3)c(=O)c2c1O [Tectorigenin, 5,7,4′-trihydroxyl-6-methoxyl isoflavone]
Vmax for M formation [1]: 5.87 ± 0.25 nmol/min/mg
